Data reported in publication PMC8842630, “Imidazoline- and Benzamidine-Based Trypanosome Alternative Oxidase Inhibitors: Synthesis and Structure–Activity Relationship Studies” (ACS Medicinal Chemistry Letters, 2022).
“And” between values parts separate entries of the source, which are not always exact repeats. Equal values may be shown once.

Legend:
[1] = system: T. b. brucei strain resistant to pentamidine (B48); test: microbe, parasite or virus in culture; format: cell-based; settings: for EC50: Trypanosoma brucei, read-out: T. b. brucei EC50 B48
[2] = system: Bloodstream form trypomastigotes of T. b. brucei strain 427 (WT); test: Resazurin-based susceptibility assay, wild-type T. b. brucei; format: cell-based; settings: for EC50: BSF trypomastigotes strain 427, n = 3; for trypanocidal activity against T. brucei (in words): compounds with short linkers (C-3)
Description: . […] This finding was in agreement with previous reports on TAO inhibitors showing that a decrease in efficacy against T. b. brucei growth inhibition was observed as chain length decreased.[8],[9],[23]
(§1) BSF trypanosomes of monomorphic strains Lister 427 (WT), multi-drug-resistant clone B48, and the AQP1-3 KO, which lacks all aquaglyceroporins,[26] were grown in complete HMI-9 with 10% fetal bovine serum, exactly as described, and tested using a standard resazurin-based assay with 23 doubling dilutions for each compound starting at 100 μM.[27] Human embryonic kidney (HEK) cells were cultured and assayed with a resazurin-based assay exactly as described previously.[9] EC50 values were calculated by nonlinear regression with an equation for a sigmoid curve with variable slope (Prism 8.0, GraphPad).

in vitro = settings: human
[3] = system: T. brucei cell line from which all aquaporins were knocked out (AQP1-3 KO); test: microbe, parasite or virus in culture; format: cell-based, T. b. brucei; settings: for EC50: Trypanosoma brucei, read-out: T. b. brucei EC50 AQP1-3 KO; for RF (resistance factor relative to WT), AQP1-3 KO: EC50 AQP1-3 KO / EC50 WT
Description: as §1

[4] = system: human embryonic kidney (HEK) cells; settings: HEK CC50 / T. b. brucei WT EC50
[5] = biological target: Purified recombinant trypanosome alternative oxidase (ΔMTS-TAO) (Trypanosoma brucei brucei, UniProt Q26710); test: Inhibition of ubiquinol oxidase activity of purified ΔMTS-TAO; settings: for IC50: rTAO IC50, purified ΔMTS-TAO, n = 3; for inhibition at 40 µM: read-out: rTAO % inhibition at 40 μM; for inhibition at 10 µM: read-out: rTAO % inhibition (compound tested at 10 μM)
Sequence of Purified recombinant trypanosome alternative oxidase (ΔMTS-TAO) (Q26710 26-329, stated change not applied): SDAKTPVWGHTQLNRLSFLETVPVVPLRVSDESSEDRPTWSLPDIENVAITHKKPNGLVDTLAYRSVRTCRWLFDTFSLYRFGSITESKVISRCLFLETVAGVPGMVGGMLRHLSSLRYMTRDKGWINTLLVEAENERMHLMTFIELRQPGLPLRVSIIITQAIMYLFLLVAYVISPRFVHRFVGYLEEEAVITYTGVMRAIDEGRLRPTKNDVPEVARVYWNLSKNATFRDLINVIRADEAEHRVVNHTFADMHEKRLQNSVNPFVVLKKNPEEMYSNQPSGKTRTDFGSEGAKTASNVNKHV

| Compound | EC50 [1] [µM] | EC50 ([2]; Trypanosoma brucei) [µM] | trypanocidal activity against T. brucei (in words) [2] | CC50 (in vitro) [µM] | EC50 [3] [µM] | SI (selectivity index) = CC50/EC50 (WT) [4] | IC50 [5] | inhibition at 40 µM [5] [%] | EC50 [2] [µM] | inhibition at 10 µM [5] [%] | melting point [°C] | RF (resistance factor relative to WT), AQP1-3 KO [3] | fold lower EC50 versus 7d ([2]; T. brucei WT EC50 of 20 versus 7d) [fold] | TAO inhibition (in words) [5] | RF (resistance factor relative to WT), B48 ([1]; EC50 B48 / EC50 WT) |
| --- | --- | --- | --- | --- | --- | --- | --- | --- | --- | --- | --- | --- | --- | --- | --- |
| CC(=O)O.Cc1cc(O)cc(O)c1C(=O)NCCCOc1ccc(C(=N)N)cc1 [1a] | > 100 | > 100 | inactive | > 200 | – | – | – | – | – | – | – | – | – | – | – |
| CC(=O)O.Cc1cc(O)cc(O)c1C(=O)NCCCCCCOc1ccc(C(=N)N)cc1 [1b] | 28 ± 0.5 | 15.5 ± 0.6 | – | > 200 | 17.4 ± 0.9 | >12.9 | > 40 µM | 12.5 | – | – | – | – | – | – | – |
| CC(=O)O.Cc1cc(O)cc(O)c1C(=O)NCCCCCCCCCCCCOc1ccc(C(=N)N)cc1 [1c] | 3.6 ± 0.1 | < 4 | – | 43.5 ± 5.4 | – | 13.2 | > 40 µM | 39.3 | 3.3 ± 0.2 | – | – | – | – | – | – |
| Cc1cc(O)cc(O)c1C(=O)NCCCCCCCCCCCCCCOc1ccc(C(=N)N)cc1 [1d] | 28.9 ± 5.2 | 18.6 ± 1.1 | – | > 200 | – | – | > 40 µM | 31.4 | – | – | – | – | – | – | – |
| CC(=O)O.Cc1cc(O)cc(O)c1C(=O)NCCCCCCCCCCCCOc1ccc(C2=NCCN2)cc1 [2c] | – | – | – | 67.2 ± 0.8 | 2.9 ± 0.4 | 39.1 | > 10 µM | – | – | 10 | – | – | – | – | – |
| CC(=O)O.Cc1cc(O)cc(O)c1C(=O)NCCCCCCCCCCCCOc1ccc(N=C2NCCN2)cc1 [3c] | – | < 4 | – | > 100 | 3.92 ± 0.03 | >36.5 | 22.5 ± 0.3 µM | – | 2.7 ± 0.4 | 46.3 | 44.5 to 51.1 | – | – | – | – |
| Cc1cc(O)cc(O)c1C(=O)NCCCOc1ccc(C#N)cc1 [7a] | 50.8 ± 2.7 | 37.2 ± 3.4 | poorly active | > 200 | – | >5.3 | > 40 µM | 28.8 | – | – | – | – | – | – | – |
| Cc1cc(O)cc(O)c1C(=O)NCCCCCCOc1ccc(C#N)cc1 [7b] | 27.7 ± 2 | 30.4 ± 0.4 | – | > 200 | 30.5 ± 0.7 | – | 1.52 µM and 1.5 µM | 96.2 | – | – | – | – | – | – | – |
| Cc1cc(O)cc(O)c1C(=O)NCCCCCCCCCCCCOc1ccc(C#N)cc1 [7c] | 15.9 ± 0.7 | 15.6 ± 0.7 | – | 57.1 ± 0.1 | – | 3.7 | > 40 µM | 27.4 | – | – | 81.9 | – | – | – | – |
| Cc1cc(O)cc(O)c1C(=O)NCCCCCCCCCCCCCCOc1ccc(C#N)cc1 [7d] | 15.7 ± 0.5 | 14.8 ± 0.5 | – | 56.8 ± 0.2 | – | 3.8 | 16.4 ± 0.7 µM | 89.7 | – | – | – | – | – | – | – |
| Cc1cc(O)cc(O)c1C(=O)NCCCOc1ccc(C(=N)NO)cc1 [8a] | > 100 | > 100 | inactive | > 200 | – | – | > 40 µM | 14.1 | – | – | – | – | – | – | – |
| Cc1cc(O)cc(O)c1C(=O)NCCCCCCOc1ccc(C(=N)NO)cc1 [8b] | 36 ± 1.8 | 19.5 ± 1 | – | 76.8 ± 7.2 | 21 ± 1 | 3.9 | > 40 µM | -14.9 | – | – | – | – | – | – | – |
| Cc1cc(O)cc(O)c1C(=O)NCCCCCCCCCCCCOc1ccc(C(=N)NO)cc1 [8c] | 9.1 ± 0.5 | 8.4 ± 1.1 | – | 109 ± 1.6 | – | 13 | > 40 µM | 44.8 | – | – | – | – | – | – | – |
| Cc1cc(O)cc(O)c1C(=O)NCCCCCCCCCCCCCCOc1ccc(C(=N)NO)cc1 [8d] | 27.1 ± 2.4 | 29 ± 2.2 | – | > 200 | – | – | > 40 µM | -3.4 | – | – | – | – | – | – | – |
| Cc1cc(O)cc(O)c1C(=O)NCCCCCCCCCCCCOc1ccc([N+](=O)[O-])cc1 [11c] | – | 9.5 ± 0.5 | – | > 100 | 10.2 ± 0.7 | >10.5 | 30 ± 1.5 µM | – | – | 53.8 | 102.3 to 106.3 | – | – | – | – |
| Cc1cc(O)cc(O)c1C(=O)NCCCCCCCCCCCCOc1ccc(N)cc1 [12c] | – | 20.3 ± 1.3 | – | > 100 | 29.6 ± 2.2 | >4.9 | – | – | – | – | – | 1.5 | – | – | – |
| Cc1cc(O)cc(O)c1C(=O)NCCCCCCCCCCCCOc1ccc(N=C2N(C(=O)OC(C)(C)C)CCN2C(=O)OC(C)(C)C)cc1 [14c] | – | 10.4 ± 0.7 | – | > 100 | 15.7 ± 0.3 | >9.6 | – | – | – | – | – | 1.5 | – | – | – |
| C/C(=C\Cc1c(O)c(Cl)c(C)c(C=O)c1O)CC/C=C(\C)[C@@H]1CC(=O)C(C)(C)O1 [ascofuranone, reference compound] | – | – | – | – | – | – | – | 100 | – | – | – | – | – | – | – |
| Cc1cc(O)c(C(=O)CCCCCCCCCCCCCCCOc2ccc(C#N)cc2)c(O)c1 [compound 20] | – | 5.8 ± 0.7 | – | > 100 | 8.2 ± 0.9 | >17.1 | > 10 µM | – | – | 13.4 | – | – | 2.5 | lack of TAO inhibition | – |
| Cc1cc(O)cc(OC(=O)CCCCCCCCCCCCCCCOc2ccc(C#N)cc2)c1 [compound 21] | – | > 100 | – | > 100 | > 100 | – | > 10 µM | – | – | 30 | – | – | – | – | – |
| N=C(N)c1ccc(/N=N/Nc2ccc(C(=N)N)cc2)cc1 [diminazene, reference compound] | 0.107 ± 0.019 | 0.095 ± 0.011 | – | – | – | – | – | – | – | – | – | – | – | – | 1.1 |
| N=C(N)c1ccc(OCCCCCOc2ccc(C(=N)N)cc2)cc1 [pentamidine, reference compound] | 0.208 ± 0.021 | 0.004 ± 0.001 | – | – | 0.046 ± 0.003 | – | – | – | – | – | – | – | – | – | – |
